{"source": "patent US7772260B2", "about": "“Imidazo[2,1-b]-1,3,4-thiadiazole sulfonamides” (Aegera Therapeutics Inc., priority 2001, dated 2010)", "key": {"Sprague Dawley rats": {"system": "Sprague Dawley rats", "type": "in vivo", "method": "Taxol™ commonly causes dose dependent peripheral neuropathies during cancer treatment. […] All of the Taxol™ treated animals developed peripheral neuropathies, characterized by ‘tip toe walking’. The extent of this neuropathy was analyzed by quantifying the refracted light captured by a video camera as the animals walked over a glass plate.\nAdult Sprague Dawley rats were treated with Taxol™ (IP, 9 mg/kg in Cremophor EL and ethanol) twice weekly for 3 weeks (J. Neuro-Oncology (1999) 41: 107-116). Compound was administered I hour prior to Taxol™ treatment (IP, 1, 5 and 10 mg/kg in hydroxypropyl-β-cyclodextrin). Taxol™ treated control animals were treated with saline solution at the same time of Compound treated animals. Non-treated control animals were treated with saline solution as above. Weight gain was measured every second day, starting at Day 1. Gait analysis was measured by quantifying the refracted light captured by a video camera as the animals walked over a glass plate, 2 days after the final Taxol™ treatment (Physiology and Behavior (1994), 55(4): 723-726; Med. Sci. Res. (1988) 16: 901-902). […] H/M wave recovery was analyzed using standard procedures 2 days after the final Taxol™ treatment (Muscle Nerve (1998) 21: 1405-1413; Annals of Neurology (1998) 43 (1): 46-55).\nMale Spraugue Dawley rats were treated with 50% HPDC vehicle (veh/veh), compound I dissolved in 50% HPDC at 1, 5, or 10 mg/kg (veh/1, veh/5, veh/10, respectively), or Taxol™ (9 mg/kg)+compound 1 dissolved in 50% HPDC at 1, 5, and 10 mg/kg (Tax/1, Tax/5, Tax/10) according to the dosing regime described in Example 160. Weight measurements were made ever other day.\nTwo days after the completion of drug treatments animal walking gait was analyzed according to a) total imprint area, and b) total number of contact points.\nFIG. 6 illustrates the effect of Compound 1 on H-reflex amplitude, a measurement of H/M wave disturbance induced by Taxol™. Two days after the completion of drug treatments, the dorsal root ganglia and attached nerves were dissected bilaterally from L4 and L5 and their H/M wave conductance measured."}, "SCG neurons": {"system": "SCG neurons", "assay": "Protection of SCG neurons from anti-NGF killing", "type": "cell-based, Sprague Dawley rats", "conditions": "Rattus norvegicus, Neuron; anti-NGF antibody, serum and NGF free 48 hours, Alamar Blue; +/−1 uM; read-out: IC(50), rescue from anti-NGF killing of SCG neurons", "method": "Neurotrophins are critical to the growth, development, and survival of small fiber neurons of the PNS. SCG neurons are neurons of the PNS that undergo apoptosis upon NGF withdrawal. In a typical experiment SCG neurons are cultured in the presence of NGF, which induces survival and neurite out-growth. After 5 days the NGF is removed by either the addition of anti-NGF polyclonal antibody (Sigma) or by repeated washings (4 times) with NGF free media, resulting in the apoptosis of up to 90% of the neurons after 48 hours, as measured by MTS staining.\nAfter 4 days the cells were treated with anti-NGF antibody (Sigma). At this time compound was added and the cells were maintained serum and NGF free for 48 hours, at which time viability was assessed using Alamar Blue (Medicorp) staining."}, "[1]": {"conditions": "5 mg/kg with Taxol™ (9 mg/kg), bi-weekly"}}}
{"smiles": "NS(=O)(=O)c1nn2cc(-c3ccccc3)nc2s1", "note": "[Compound 1, 6-Phenylimidazo[2,1-b]-1,3,4-thiadiazole-2-sulfonamide]", "values": [{"measurement": "loss in foot pad contact", "setting": "Sprague Dawley rats; [1]", "result": 23, "unit": "%"}, {"measurement": "weight gain as compared to control", "setting": "Sprague Dawley rats; [1]", "result": "normal weight gain"}, {"measurement": "H/M wave disturbance induced by Taxol™ (H-reflex amplitude)", "setting": "Sprague Dawley rats; two days after completion of drug treatments", "result": "caused a reversal in H/M wave disturbance"}, {"measurement": "Taxol™ induced gait disturbance", "setting": "Sprague Dawley rats; two days after completion of drug treatments, total imprint area, number of contact points", "result": "prevented Taxol™ induced gait disturbance"}, {"measurement": "IC50", "setting": "SCG neurons", "result": 22, "unit": "µM"}]}
